For one assay, the target named is T1, TgDHOD-VSSM (Toxoplasma gondii, UniProt Q8MXD1).
T1 sequence (Q8MXD1 178-592): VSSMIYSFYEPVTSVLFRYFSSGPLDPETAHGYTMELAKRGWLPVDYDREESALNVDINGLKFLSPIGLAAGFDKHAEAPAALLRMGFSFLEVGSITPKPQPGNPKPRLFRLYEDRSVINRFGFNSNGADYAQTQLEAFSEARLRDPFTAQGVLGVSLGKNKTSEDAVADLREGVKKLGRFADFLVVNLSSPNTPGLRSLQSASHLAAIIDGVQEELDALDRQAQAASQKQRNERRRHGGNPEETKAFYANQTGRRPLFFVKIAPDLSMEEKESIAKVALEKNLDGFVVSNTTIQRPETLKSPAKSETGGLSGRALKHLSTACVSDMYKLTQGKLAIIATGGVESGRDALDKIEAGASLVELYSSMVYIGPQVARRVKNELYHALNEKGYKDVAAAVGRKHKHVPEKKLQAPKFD
Briefly: Use of electron acceptors and substrate kinetics of TgDHOD-VSSM.

Another assay concerns the target TgDHOD (Toxoplasma gondii, UniProt Q8MXD1). Put plainly: Inhibition of recombinant TgDHOD-VSSM, DCIP reduction assay with QD. The settings on record: for Effect on TgDHOD activity (in words): no concentration stated at the place; for Type of inhibition of TgDHOD (best fit): QD as variable substrate, saturating dihydroorotate, SigmaPlot12 fit; for Inhibition of TgDHOD (in words): inhibitor 1 mM, DCIP reduction assay with QD.

Assay [1] relates to HsDHOD. The note with it: read-out: HsDHOD IC50, cited from earlier work.
In assay [2] the test system is PfDHOD. The settings on record: read-out: PfDHOD IC50, cited from earlier work.
Assay [3] relates to PfDHOD. The note with it: read-out: Km for quinone, recombinant PfDHOD; cited from earlier work.
The subject of assay [4] is HsDHOD. The note with it: read-out: Km for QD, HsDHOD; cited from earlier work.
For assay [5], the system named is Saccharomyces cerevisiae complex III. The settings on record: read-out: IC50 for Saccharomyces cerevisiae complex III; cited from earlier work.
Another assay has as its system human complex III. The settings on record: read-out: IC50 for human complex III; cited from earlier work.
Where [6] appears, read: read-out: TgDHOD activity compared to the control.

The values below come from paper PMC3855825 (Molecular and biochemical parasitology, 2012).

“Also recorded” adds a separate entry of the source. Read-outs that look alike come from different tables or passages of the source. Bounds are passed on as bounds.

The IC50 is the point on the concentration scale where inhibition reaches its midpoint. As usually defined, the Ki is a dissociation constant, usually derived from enzyme kinetics or from competition with a known ligand. The term Km denotes the concentration of substrate that gives half-maximal velocity.

On to `O=C1C(Cl)=CC(=Nc2ccc(O)cc2)C=C1Cl` [DCIP, 2,6 dichlorophenol-indophenol], for which the “kcat, background activity in the absence of ubiquinone” value on TgDHOD-VSSM (DCIP as only electron acceptor, 0.1 mM, 1 mM dihydroorotate) is 28.1 ± 0.7 s⁻¹.

As to `Cc1cc(Nc2cc(F)c(C(F)(F)F)c(F)c2)n2ncnc2n1` [DSM190, N-(3,5-difluoro-4-(trifluoromethyl)phenyl)-5-methyl-[1,2,4]triazolo[1,5-a]pyrimidin-7-amine], the “Effect on TgDHOD activity (in words)” value on TgDHOD is given as “poor inhibitor”. The IC50 is greater than 30000 nM in the assay with HsDHOD [1] (ref 16 Gujjar et al., 2011) and 190 nM with PfDHOD [2] (ref 16 Gujjar et al., 2011).

Regarding `O=C(O)/C=C/C(=O)O` [Fumarate], the “Activity as electron acceptor for TgDHOD (in words)” value at TgDHOD-VSSM was “poor electron acceptor; also recorded: negligible activity”.

Regarding `COc1ccccc1-c1ccc(NC(=O)C(C#N)=C(C)O)c(Cl)c1` [MD209, N-(3-chloro-2′-methoxybiphenyl-4-yl)-2-cyano-3-hydroxybut-2-enamide], at TgDHOD, the Ki is 18000 nM and the “Type of inhibition of TgDHOD (best fit)” value is “partial mixed inhibition”. The IC50 with HsDHOD [1] (ref 17 Davies et al., 2009) is 200 nM. Also, the IC50 in the assay on PfDHOD [2] (ref 17 Davies et al., 2009) was 8600 nM.

As to `CC(O)=C(C#N)C(=O)Nc1ccc(-c2cccc(Cl)c2Cl)cc1Cl` [MD249], the “Type of inhibition of TgDHOD (best fit)” value on TgDHOD was “partial mixed inhibition”. Moreover, the IC50 with HsDHOD [1] (ref 17 Davies et al., 2009) was 330 nM; in the assay with PfDHOD [2] (ref 17 Davies et al., 2009), 9900 nM.

As for `CC1=CC(=O)c2ccccc2C1=O` [Menadione, 2-methyl-1,4-naphthoquinone], the Km with PfDHOD [3] was 55 to 115 µM.

Turning to `COC1=C(OC)C(=O)C(C)=CC1=O` [Q0, 2,3-dimethoxy-5-methyl-1,4-benzoquinone], the Km in the assay with PfDHOD [3] was 55 to 115 µM.

For `CCCCCCCCCCC1=C(C)C(=O)C(OC)=C(OC)C1=O` [QD, 2,3-dimethoxy-5-methyl-6-decyl-1,4-benzoquinone], the Km in the assay with HsDHOD [4] is 14 µM.

As to `O=C(CC(=O)C(F)(F)F)c1cccs1` [TTFA, 4,4,4-trifluoro-1-(thienyl)-1,3-butanedione], at TgDHOD, the “Inhibition of TgDHOD (in words)” value was “No significant inhibition” and the “Effect on TgDHOD activity (in words)” value is listed as “not significantly affected; also recorded: no effect”.

On to `O=C1C(O)=C([C@H]2CC[C@H](c3ccc(Cl)cc3)CC2)C(=O)c2ccccc21` [atovaquone, trans-2-[4-(chlorophenyl)cyclohexyl]-3-hydroxy-1,4-naphthoquinone], for which the IC50 was 40 nM in assay [5] and 400 nM in the assay on human complex III. The “Effect on TgDHOD activity (in words)” value is listed as “not significantly affected” on TgDHOD and “little effect” at TgDHOD (listed as Atovaquone). In addition, the remaining activity at 100 µM at TgDHOD (setting [6]) was found to be 80.6%.

In the case of `Cc1c(-c2ccc(-c3ccccc3F)cc2)nc2ccc(F)cc2c1C(=O)O` [brequinar, 6-fluoro-2-(2′-fluoro-1,1-biphenyl-4-yl)-3-methyl-4-quinoline carboxylic acid], at TgDHOD, the “Inhibition of TgDHOD (in words)” value is listed as “No significant inhibition” and the “Effect on TgDHOD activity (in words)” value was “not significantly affected; also recorded: not efficient inhibitors”.

As to `COc1cc(-c2ccc(Nc3ccccc3C(=O)O)c(OC)c2)ccc1Nc1ccccc1C(=O)O` [redoxal, (2,2′-[3,3′-dimethoxy[1,1′-biphenyl]-4,4′-diyl]diimino)bis-benzoic acid], at TgDHOD, the “Effect on TgDHOD activity (in words)” value is on record as “not efficient inhibitors”.

Take `Cc1cc(-n2c(=O)[nH]c(=O)n(C)c2=O)ccc1Oc1ccc(SC(F)(F)F)cc1` [toltrazuril, 1-(3-methyl-4(4′-trifluoromethylthiophenoxy)phenyl)-3-methyl-1,3,5-triazine-2,4,6-(1H,3H,5H)-trione]: at TgDHOD, the “Effect on TgDHOD activity (in words)” value is “little effect”. Besides, on TgDHOD (setting [6]), the remaining activity at 500 µM was found to be 82.9%.
